In patent US20250346592A1 (Celgene Corporation, priority 2022, published 2025):
pIC50: −log10 of the molar value.

Target: hPAD4 enzyme (Homo sapiens (Human), UniProt Q9UM07)
Test: RFMS2 assay (RapidFire mass spectrometry, TSTGGRQGSHH peptide substrate)
Format: biochemical
Conditions: 35 nM recombinant human PAD4, 500 μM TSTGGRQGSHH peptide, 30 minutes at room temperature; read-out: RFMS 2 IC50
Protocol: Stock compounds were dissolved and stored in 100% DMSO. Compound solutions were prepared via serial dilution at 3-fold intervals in DMSO with top compound concentration at 20 μM in each assay. 0.25 μl of compound solution was transferred from the compound plate to the assay plate by using an acoustic dispenser.
• Total reaction volume: 25 μl • Assay buffer: […] pH 7.4, 200 mM NaCl, 2 mM CaCl2, 5 mM DTT • 35 nM recombinant human PAD4 • 500 μM TSTGGRQGSHH peptide • 1.2% DMSO • Stop solution: 10% formic acid
Reaction mixtures were incubated at room temperature for 30 minutes. 10 μl each of the reaction mixtures was then mixed with 40 μl of 10% formic acid in a microtiter plate. The plate was frozen at −80° C. before shipping out on dry ice for RapidFire mass spectroscopy analysis.
Thawed samples were loaded onto the Rapid Fire 300 system (Agilent) wherein they were first sipped for 250 ms and then loaded onto a Agilent “C” (C18) cartridge using a mobile phase of water containing 0.09% formic acid/0.01% trifluoroacetic acid for 3000 ms desalting flowing at a rate of 1.5 ml/min. Once the samples were loaded and washed, a mobile phase of acetonitrile containing 0.09% formic acid/0.01% trifluoroacetic acid was used to elute the samples directly onto a Sciex API4000 triple quadrupole mass spectrometer for 3000 ms at a flow rate of 1.25 ml/min.
MRM transitions for substrate and product were monitored in positive ESI mode at m/z=562.3/969.7 and m/z=562.8/541.3 respectively. The dwell time for each transition was set at 100 ms, and the ESI voltage was used at 5500 with a source temperature of 650° C. Extracted ion peaks for each transition were integrated using the Rapid Fire Integrator software.
Compounds having an activity designated as “A” provided an IC50≤10 nM; compounds having an activity designated as “B” provided an IC50 11-100 nM; compounds having an activity designated as “C” provided an IC50 101-500 nM; compounds having an activity designated as “D” provided an IC50 501-1000 nM; compounds having an activity designated as “E” provided an IC50>1000 nM.

Chain of hPAD4 enzyme (Q9UM07 whole entry): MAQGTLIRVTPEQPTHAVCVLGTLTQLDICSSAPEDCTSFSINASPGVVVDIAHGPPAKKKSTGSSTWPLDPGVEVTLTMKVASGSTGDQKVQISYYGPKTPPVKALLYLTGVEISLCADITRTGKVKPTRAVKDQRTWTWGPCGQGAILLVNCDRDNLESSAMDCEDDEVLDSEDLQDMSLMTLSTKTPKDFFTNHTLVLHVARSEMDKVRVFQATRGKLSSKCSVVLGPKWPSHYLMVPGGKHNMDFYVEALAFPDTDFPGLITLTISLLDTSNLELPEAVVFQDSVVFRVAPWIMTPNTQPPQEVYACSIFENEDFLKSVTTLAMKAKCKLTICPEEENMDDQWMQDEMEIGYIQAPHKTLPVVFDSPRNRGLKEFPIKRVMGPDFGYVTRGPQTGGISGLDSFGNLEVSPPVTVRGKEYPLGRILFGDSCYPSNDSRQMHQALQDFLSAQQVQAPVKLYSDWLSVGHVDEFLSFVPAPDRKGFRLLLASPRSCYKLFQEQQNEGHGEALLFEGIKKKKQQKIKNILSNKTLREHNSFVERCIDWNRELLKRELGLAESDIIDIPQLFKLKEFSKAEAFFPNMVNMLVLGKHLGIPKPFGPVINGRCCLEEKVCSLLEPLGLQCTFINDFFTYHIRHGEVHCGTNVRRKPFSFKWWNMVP

SMILES | pIC50
COc1ccc2cc(-c3nc4cc5c(c(F)c4n3C)CCN(C[C@H](N)CF)C5=O)n(CC3CC3)c2c1 [Example 239, (S)-6-(2-amino-3-fluoropropyl)-2-(1-(cyclopropylmethyl)-6-methoxy-1H-indol-2-yl)-9-fluoro-1-methyl-1,6,7,8-tetrahydro-5H-imidazo[4,5-g]isoquinolin-5-one] | 6.00 to 6.30
Cn1c(-c2cc3cccc(OCC4COC4)c3n2CC2CC2)nc2cc3c(cc21)CCN(C[C@H](N)CF)C3=O [Example 149, (S)-6-(2-amino-3-fluoropropyl)-2-(1-(cyclopropylmethyl)-7-(oxetan-3-ylmethoxy)-1H-indol-2-yl)-1-methyl-1,6,7,8-tetrahydro-5H-imidazo[4,5-g]isoquinolin-5-one] | 6.30 to 7.00
Cn1c(-c2cc3cccc(OCC(C)(C)O)c3n2CC2CC2)nc2cc3c(cc21)CCN(C[C@H](N)CF)C3=O [Example 214, (S)-6-(2-amino-3-fluoropropyl)-2-(1-(cyclopropylmethyl)-7-(2-hydroxy-2-methylpropoxy)-1H-indol-2-yl)-1-methyl-1,6,7,8-tetrahydro-5H-imidazo[4,5-g]isoquinolin-5-one] | 6.00 to 6.30
Cn1c(-c2cc3cccc(OCc4cn[nH]c4)c3n2CC2CC2)nc2cc3c(cc21)CCN(C[C@H](N)CF)C3=O [Example 193, (S)-2-(7-((1H-pyrazol-4-yl)methoxy)-1-(cyclopropylmethyl)-1H-indol-2-yl)-6-(2-amino-3-fluoropropyl)-1-methyl-1,6,7,8-tetrahydro-5H-imidazo[4,5-g]isoquinolin-5-one] | 7.00 to 7.96
COc1cccc2cc(-c3nc4cc5c(cc4n3C)CCN(C[C@H](N)CF)C5=O)n(Cc3ccno3)c12 [Example 111, (S)-6-(2-amino-3-fluoropropyl)-2-(1-(isoxazol-5-ylmethyl)-7-methoxy-1H-indol-2-yl)-1-methyl-1,6,7,8-tetrahydro-5H-imidazo[4,5-g]isoquinolin-5-one] | 7.00 to 7.96
COc1ccc2cc(-c3nc4cc5c(cc4n3C)CCN(C[C@@H](C)N)C5=O)n(CC3CC3)c2c1 [Example 18, (R)-6-(2-aminopropyl)-2-(1-(cyclopropylmethyl)-6-methoxy-1H-indol-2-yl)-1-methyl-1,6,7,8-tetrahydro-5H-imidazo[4,5-g]isoquinolin-5-one] | 6.30 to 7.00
C[C@@H](N)CN1CCc2cc3c(cc2C1=O)nc(-c1cc2ccc(F)nc2n1CC1CC1)n3C [Example 21, (R)-6-(2-aminopropyl)-2-(1-(cyclopropylmethyl)-6-fluoro-1H-pyrrolo[2,3-b]pyridin-2-yl)-1-methyl-1,6,7,8-tetrahydro-5H-imidazo[4,5-g]soquinolin-5-one] | 6.30 to 7.00
COCCn1c(-c2nc3cc4c(cc3n2C)CCN(C[C@H](N)CF)C4=O)cc2ccc(OC)cc21 [Example 103, (S)-6-(2-amino-3-fluoropropyl)-2-(6-methoxy-1-(2-methoxyethyl)-1H-indol-2-yl)-1-methyl-1,6,7,8-tetrahydro-5H-imidazo[4,5-g]isoquinolin-5-one] | 6.00 to 6.30
C[C@@H](N)CN1CCc2cc3c(cc2C1=O)nc(-c1c(F)c2ccccc2n1CC1CC1)n3C [Example 46, (R)-6-(2-aminopropyl)-2-(1-(cyclopropylmethyl)-3-fluoro-1H-indol-2-yl)-1-methyl-1,6,7,8-tetrahydro-5H-imidazo[4,5-g]isoquinolin-5-one] | 6.00 to 6.30
Cn1c(-c2cc3cccc(OCCc4cc[nH]c4)c3n2CC2CC2)nc2cc3c(cc21)CCN(C[C@H](N)CF)C3=O [Example 203] | 6.30 to 7.00
Cn1c(-c2cc3cccc(OCC4(C)CNC(=O)C4)c3n2CC2CC2)nc2cc3c(cc21)CCN(C[C@H](N)CF)C3=O (single isomer, unassigned) [Example 220] | 6.00 to 6.30
CN[C@H](C)CN1CCc2cc3c(cc2C1=O)nc(-c1cc2cccc(OC)c2n1CC1CC1)n3C [Example 37, (R)-2-(1-(cyclopropylmethyl)-7-methoxy-1H-indol-2-yl)-1-methyl-6-(2-(methylamino)propyl)-1,6,7,8-tetrahydro-5H-imidazo[4,5-g]isoquinolin-5-one] | 6.30 to 7.00
C[C@H](CCO)Oc1cccc2cc(-c3nc4cc5c(cc4n3C)CCN(C[C@H](N)CF)C5=O)n(CC3CC3)c12 [Example 192, 6-((S)-2-amino-3-fluoropropyl)-2-(1-(cyclopropylmethyl)-7-(((R)-4-hydroxybutan-2-yl)oxy)-1H-indol-2-yl)-1-methyl-1,6,7,8-tetrahydro-5H-imidazo[4,5-g]isoquinolin-5-one] | 6.30 to 7.00
CCN[C@H](C)CN1CCc2cc3c(cc2C1=O)nc(-c1cc2ccccc2n1CC1CC1)n3C [Example 2, (R)-2-(1-(cyclopropylmethyl)-1H-indol-2-yl)-6-(2-(ethylamino)propyl)-1-methyl-1,6,7,8-tetrahydro-5H-imidazo[4,5-g]isoquinolin-5-one] | 6.00 to 6.30
Cn1c(-c2cc3cccc(OCCO)c3n2Cc2ccno2)nc2cc3c(cc21)CCN(C[C@H](N)CF)C3=O [Example 218, (S)-6-(2-amino-3-fluoropropyl)-2-(7-(2-hydroxyethoxy)-1-(isoxazol-5-ylmethyl)-1H-indol-2-yl)-1-methyl-1,6,7,8-tetrahydro-5H-imidazo[4,5-g]isoquinolin-5-one] | 6.30 to 7.00
Cc1ccc2cc(-c3nc4cc5c(cc4n3C)CCN(C[C@@H](C)N)C5=O)n(CC3CC3)c2c1C [Example 16, (R)-6-(2-aminopropyl)-2-(1-(cyclopropylmethyl)-6,7-dimethyl-1H-indol-2-yl)-1-methyl-1,6,7,8-tetrahydro-5H-imidazo[4,5-g]isoquinolin-5-one] | 6.30 to 7.00
Cc1nncn1CCOc1cccc2cc(-c3nc4cc5c(cc4n3C)CCN(C[C@H](N)CF)C5=O)n(CC3CC3)c12 [Example 182, (S)-6-(2-amino-3-fluoropropyl)-2-(1-(cyclopropylmethyl)-7-(2-(3-methyl-4H-1,2,4-triazol-4-yl)ethoxy)-1H-indol-2-yl)-1-methyl-1,6,7,8-tetrahydro-5H-imidazo[4,5-g]isoquinolin-5-one] | 6.30 to 7.00
COc1ccc2cc(-c3nc4cc5c(cc4n3C)CCN(C[C@H](N)CF)C5=O)n(CC3CC3)c2n1 [Example 62, (S)-6-(2-amino-3-fluoropropyl)-2-(1-(cyclopropylmethyl)-6-methoxy-1H-pyrrolo[2,3-b]pyridin-2-yl)-1-methyl-1,6,7,8-tetrahydro-H-imidazo[4,5-g]isoquinolin-5-one] | 6.30 to 7.00
COc1cccc2cc(-c3nc4cc5c(cc4n3C)CCN(C[C@H](N)CF)C5=O)n(Cc3cn(C)cn3)c12 [Example 114, (S)-6-(2-amino-3-fluoropropyl)-2-(7-methoxy-1-((1-methyl-1H-imidazol-4-yl)methyl)-1H-indol-2-yl)-1-methyl-1,6,7,8-tetrahydro-5H-imidazo[4,5-g]isoquinolin-5-one] | 6.00 to 6.30
C[C@@H](N)CN1CCc2cc3c(cc2C1=O)nc(-c1cc2ccccc2n1CC1CCC1)n3C [Example 71, (R)-6-(2-aminopropyl)-2-(1-(cyclobutylmethyl)-1H-indol-2-yl)-1-methyl-1,6,7,8-tetrahydro-5H-imidazo[4,5-g]isoquinolin-5-one] | 6.30 to 7.00
Cn1c(-c2cc3cccc(OCC4CNC4)c3n2CC2CC2)nc2cc3c(cc21)CCN(C[C@H](N)CF)C3=O [Example 152, (S)-6-(2-amino-3-fluoropropyl)-2-(7-(azetidin-3-ylmethoxy)-1-(cyclopropylmethyl)-1H-indol-2-yl)-1-methyl-1,6,7,8-tetrahydro-5H-imidazo[4,5-g]isoquinolin-5-one] | 6.30 to 7.00
COc1cccc2cc(-c3nc4cc5c(cc4n3C)CCN(C[C@H](N)CF)C5=O)n(Cc3ccc(C)o3)c12 [Example 143, (S)-6-(2-amino-3-fluoropropyl)-2-(7-methoxy-1-((5-methylfuran-2-yl)methyl)-1H-indol-2-yl)-1-methyl-1,6,7,8-tetrahydro-5H-imidazo[4,5-g]isoquinolin-5-one] | 6.30 to 7.00
COC1(Cn2c(-c3nc4cc5c(cc4n3C)CCN(C[C@H](N)CF)C5=O)cc3ccccc32)CC1 [Example 147, (S)-6-(2-amino-3-fluoropropyl)-2-(1-((1-methoxycyclopropyl)methyl)-1H-indol-2-yl)-1-methyl-1,6,7,8-tetrahydro-5H-imidazo[4,5-g]isoquinolin-5-one] | < 6.00
CCc1cccc2cc(-c3nc4cc5c(cc4n3C)CCN(C[C@@H](C)N)C5=O)n(CC3CC3)c12 [Example 28, (R)-6-(2-aminopropyl)-2-(1-(cyclopropylmethyl)-7-ethyl-1H-indol-2-yl)-1-methyl-1,6,7,8-tetrahydro-5H-imidazo[4,5-g]isoquinolin-5-one] | 6.30 to 7.00
